Reference: the supplement of paper PMC10307832

Key:
Test in all cases: relative viability (nuclei count vs DMSO), 5 days (fraction); higher = more cells survive
HOP-62 = test system: HOP-62
Summary of the method: (§1)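 Cells from lung cancer lines were seeded into 1536-well plates and, one day later, dosed by pin tool. Treatments were either a single drug or a fixed dose of an anchor drug with five library-drug doses (not always all listed) in √10 steps. After 5 days, nuclei were stained in a one-step fixation (final 0.05% Triton X-100, 1% formaldehyde, 1 ug/ml Hoechst) and counted on 4× images, and relative viability is the treated-to-vehicle nuclei ratio, as the median of duplicate plates.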

LU99A = test system: LU99A
Summary of the method: as §1

A-427 = test system: A-427
Summary of the method: as §1

NCI-H1793 = test system: NCI-H1793
Summary of the method: as §1

EPLC-272H = test system: EPLC-272H
Summary of the method: as §1

COR-L 105 = test system: COR-L 105
Summary of the method: as §1

NCI-H1944 = test system: NCI-H1944
Summary of the method: as §1

NCI-H2009 = test system: NCI-H2009
Summary of the method: as §1

LXF-289 = test system: LXF-289
Summary of the method: as §1

SK-LU-1 = test system: SK-LU-1
Summary of the method: as §1

HCC-366 = test system: HCC-366
Summary of the method: as §1

With O=c1cc(-c2cccc3c2Sc2ccccc2S3)oc(N2CCOCC2)c1 + Cc1nc(NC(=O)N2CCC[C@H]2C(N)=O)sc1-c1ccnc(C(C)(C)C(F)(F)F)c1 [Alpelisib] (partner 2 µM) the relative viability (HOP-62; first compound 0.8 µM) was 1.01, the relative viability (HOP-62; first compound 2.53 µM) was 0.908 and the relative viability (HOP-62; first compound 8 µM) was 1.18. For the same compound, the relative viability (LU99A; first compound 0.08 µM) was 0.507, the relative viability (LU99A; first compound 0.253 µM) was 0.567 and the relative viability (LU99A; first compound 0.8 µM) was 0.747. For the same compound, the relative viability (LU99A; first compound 2.53 µM) was 0.504, the relative viability (LU99A; first compound 8 µM) was 0.575 and the relative viability (A-427; first compound 0.08 µM) was 1.04. For the same compound, the relative viability (A-427; first compound 0.253 µM) was 1.04, the relative viability (A-427; first compound 0.8 µM) was 1.14 and the relative viability (A-427; first compound 2.53 µM) was 0.987. For the same compound, the relative viability (A-427; first compound 8 µM) was 1.05, the relative viability (NCI-H1793; first compound 0.08 µM) was 0.498 and the relative viability (NCI-H1793; first compound 0.253 µM) was 0.782. It also gave a relative viability (NCI-H1793; first compound 0.8 µM) of 0.692, a relative viability (NCI-H1793; first compound 2.53 µM) of 0.55 and a relative viability (NCI-H1793; first compound 8 µM) of 0.689. For the same compound, the relative viability (EPLC-272H; first compound 0.08 µM) was 0.966, the relative viability (EPLC-272H; first compound 0.253 µM) was 1.11 and the relative viability (EPLC-272H; first compound 0.8 µM) was 0.987. It also gave a relative viability (EPLC-272H; first compound 2.53 µM) of 0.86, a relative viability (EPLC-272H; first compound 8 µM) of 0.929 and a relative viability (COR-L 105; first compound 0.08 µM) of 1.1. The relative viability (COR-L 105; first compound 0.253 µM) was 1.13, the relative viability (COR-L 105; first compound 0.8 µM) was 0.862 and the relative viability (COR-L 105; first compound 2.53 µM) was 0.902. The relative viability (COR-L 105; first compound 8 µM) was 1.12, the relative viability (NCI-H1944; first compound 0.08 µM) was 0.793 and the relative viability (NCI-H1944; first compound 0.253 µM) was 0.939. The relative viability (NCI-H1944; first compound 0.8 µM) was 0.736, the relative viability (NCI-H1944; first compound 8 µM) was 0.751 and the relative viability (NCI-H2009; first compound 0.08 µM) was 1.18. For the same compound, the relative viability (NCI-H2009; first compound 0.253 µM) was 1.27, the relative viability (NCI-H2009; first compound 0.8 µM) was 1.18 and the relative viability (NCI-H2009; first compound 2.53 µM) was 1.14. For the same compound, the relative viability (NCI-H2009; first compound 8 µM) was 0.811, the relative viability (LXF-289; first compound 0.08 µM) was 1.1 and the relative viability (LXF-289; first compound 0.253 µM) was 1.07. For the same compound, the relative viability (LXF-289; first compound 0.8 µM) was 1.14, the relative viability (LXF-289; first compound 2.53 µM) was 1.01 and the relative viability (LXF-289; first compound 8 µM) was 1.07. For the same compound, the relative viability (SK-LU-1; first compound 0.08 µM) was 1.03, the relative viability (SK-LU-1; first compound 0.253 µM) was 1.12 and the relative viability (SK-LU-1; first compound 0.8 µM) was 1.26. The relative viability (SK-LU-1; first compound 2.53 µM) was 0.991, the relative viability (SK-LU-1; first compound 8 µM) was 0.977 and the relative viability (HCC-366; first compound 0.08 µM) was 0.345. It also gave a relative viability (HCC-366; first compound 0.253 µM) of 0.547, a relative viability (HCC-366; first compound 0.8 µM) of 0.269 and a relative viability (HCC-366; first compound 2.53 µM) of 0.312. It also gave a relative viability (HCC-366; first compound 8 µM) of 0.318.
